From patent US8785452B2, “Anti-infective compounds” (priority 2008, dated 2014)
Values after ≈ are worked out from the molar mass of the structure shown. Where two headings read alike, the source gives them in different places.

Tested on: M. tuberculosis H37Rv-GFP
Assay: microbe, parasite or virus in culture
Format: cell-based, Mycobacterium tuberculosis
Settings: Mycobacterium tuberculosis, H37RV; for inhibition at 20 µM: Macrophage
[1] = confirmation, 20 uM, intracellular, read-out: QIM Confirm % Inhibition 20 uM
[2] = primary screen, 20 μM, intracellular, read-out: Primary QIM % Inhibition
[3] = read-out: Primary QIM % Inhibition
[4] = read-out: QIM Confirm % Inhibition 20 uM

SMILES	inhibition at 20 µM [1] [%]	inhibition at 20 µM [2] [%]	inhibition at 20 µM [3] [%]	inhibition at 20 µM [4] [%]	MIC (120 h, read-out: minimal inhibitory concentration (MIC)) [µg/mL]
NNC(=O)CSc1nc2ccccc2s1 [IPK 000 160 45]	70.7	66	–	–	–
O=C(CSC1=NCCS1)Nc1ccc(Br)cc1F [IPK 000 150 41]	83.3	78.3	–	–	–
COc1ccc(/C=C2\c3ccccc3-c3ccc(C(=O)CCCCN4CCCCC4)cc32)cc1OC [IPK 000 198 54]	77.9	38.6	–	–	–
O=C(Oc1cccc2cccnc12)c1ccccc1 [IPK 000 251 49]	–	–	27	15	–
O=C(COc1cccc(Cl)c1)N/N=C/c1ccc([N+](=O)[O-])o1 [IPK 000 147 98]	72.3	6.3	–	–	–
CCc1cccc(NC(=O)c2cccs2)c1 [IPK 000 257 61]	79.9	71.5	–	–	–
CS(=O)(=O)c1nnnn1-c1ccccc1 [IPK 000 244 12]	11.8	29.9	–	–	–
Cc1ccc(C(=O)NCCSC2CCCCC2)cc1[N+](=O)[O-] [IPK 000 229 50]	83.6	60.1	–	–	–
Cc1ccc2nc(-c3ccc(NC(=O)CN4CCCC4)cc3)sc2c1 [IPK 000 125 61]	85.8	44.1	–	–	–
CC(=O)COc1c([N+](=O)[O-])ccc(F)c1F [IPK 000 259 78]	58.8	4.9	–	–	–
O=c1c(/C=N/Cc2ccco2)c(NCc2ccco2)nc2ccccn12 [IPK 000 130 26]	29.9	66.3	–	–	–
O=C1Nc2ccccc2/C1=C(\c1ccccc1)c1nc2ccccc2[nH]1 [IPK 000 259 35]	68.8	66	–	–	–
C=CCc1ccc(OCC(=O)N/N=C/c2ccc([N+](=O)[O-])o2)c(OC)c1 [IPK 000 148 44]	8.2	-15.1	–	–	–
CO[C@H]1/C=C/O[C@@]2(C)Oc3c(C)c(O)c4c(O)c(c(/C=N/N5CCN(C)CC5)c(O)c4c3C2=O)NC(=O)/C(C)=C\C=C\[C@H](C)[C@H](O)[C@@H](C)[C@@H](O)[C@@H](C)[C@H](OC(C)=O)[C@@H]1C [rifampin, reference compound]	–	–	–	–	2.4 (≈ 2.92 µM)
O=C(NC12CC3CC(CC(C3)C1)C2)N1CCN(c2ccccc2)CC1 [IPK 000 249 84]	80.9	78.2	–	–	–
CCc1ccc(C2(O)CC(C(F)(F)F)=NN2C(=O)c2ccncc2)cc1 (centres unmarked) [IPK 000 134 51]	102	90.2	–	–	–
Cc1ccsc1/C=C1/SC(N2CCCCC2)=NC1=O [IPK 000 129 72]	75.4	61.8	–	–	–

SMILES	inhibition at 20 µM [1] [%]	inhibition at 20 µM [2] [%]	inhibition at 20 µM [3] [%]	inhibition at 20 µM [4] [%]	MIC (120 h, read-out: minimal inhibitory concentration (MIC)) [µg/mL]
O=C(Nc1ccc(Br)c(Cl)c1)c1cccs1 [IPK 000 169 42]	76.9	-64	–	–	–
COc1ccc(/C=N/Nc2nc(-c3ccccc3)cs2)cc1 [IPK 000 163 62]	107	81.3	–	–	–
O=C(COc1ccc(F)cc1)N/N=C/c1ccc([N+](=O)[O-])o1 [IPK 000 148 04]	59.3	21.8	–	–	–
O=C(COc1ccccc1)N/N=C/c1ccc([N+](=O)[O-])o1 [IPK 000 149 78]	3.6	15.2	–	–	–
C/C(=N/c1ccc(S(=O)(=O)N2CCOCC2)cc1)Nc1ccc(C(=O)O)c(O)c1 [IPK 000 128 37]	26.5	43.8	–	–	–
O=C(Nc1ccc(Cl)c(Cl)c1)c1ccco1 [IPK 000 048 49]	–	–	84.5	92.9	–
CSc1ccc(/C=N/c2ccccc2O)cc1 [IPK 000 169 96]	14.7	-50.2	–	–	–
O=C(O)c1cccc2c1NC(c1ccccc1[N+](=O)[O-])C1Cc3ccccc3C21 (centres unmarked) [IPK 000 241 72]	28	-43.3	–	–	–
C#C/C(=C/c1ccc(-c2ccc(N3CCCCC3)c([N+](=O)[O-])c2)o1)C(=O)OCC [IPK 000 229 72]	90.7	69.4	–	–	–
COc1ccc(/C=C2/c3ccccc3-c3ccc(C(=O)CCCCN4CCCCC4)cc32)cc1 [IPK 000 198 56]	64.7	15.1	–	–	–
COc1cc(/C=N/NC(=O)c2ccncc2)cc(Br)c1OCc1ccccc1Cl [IPK 000 157 51]	46.2	96	–	–	–
CCOc1ccc(NCC(=O)n2nc(C)cc2C)cc1 [IPK 000 234 61]	-1.6	-61	–	–	–
O=C(Nc1ccc(C(F)(F)F)cc1)Nc1cccc(Cl)c1 [IPK 000 147 54]	10.1	-10.9	–	–	–
O=[N+]([O-])c1cc(-c2nnc(-c3ccccc3)o2)cc([N+](=O)[O-])c1 [IPK 000 150 85]	–	–	72.3	72.2	–
CC(C)(C)c1ccc(O)c(C(=O)Oc2ccccc2)c1 [IPK 000 143 45]	83.5	81.2	–	–	–
CCOc1ccc(NCCCCO)cc1 [IPK 000 172 54]	40.4	4.1	–	–	–
